Test results from ChEMBL document CHEMBL1145799, “Spirocyclopropyl beta-lactams as mechanism-based inhibitors of serine beta-lactamases. Synthesis by rhodium-catalyzed cyclopropanation of 6-diazopenicillanate sulfone” (J Med Chem, 2003).

Key:
[1] = molecular target: Beta-lactamase (Enterobacter cloacae, UniProt P05364); assay: In vitro inhibitory activity against Beta-lactamase AmpC of class C enzyme
[2] = tested on: Escherichia coli; assay: In vitro antibacterial activity against Escherichia coli GC6265; assay type: functional
[3] = molecular target: Beta-lactamase TEM (Escherichia coli) (UniProt P62593)
Description: In vitro antibacterial activity against Escherichia coli GC4206 Beta-lactamase TEM-1 of class A enzyme

[4] = molecular target: Beta-lactamase (Enterobacter cloacae) (UniProt P05364); details: Serratia marcescens
[5] = molecular target: Beta-lactamase (Enterobacter cloacae) (UniProt P05364); details: Pseudomonas aeruginosa
Description: In vitro antibacterial activity against Pseudomonas aeruginosa Beta-lactamase AmpC of class C enzyme

[6] = tested on: Serratia marcescens; assay: In vitro antibacterial activity against Serratia marcescens GC4132 Beta-lactamase AmpC of class C enzyme; assay type: functional

Sequence of Beta-lactamase TEM (Escherichia coli) (P62593 whole entry): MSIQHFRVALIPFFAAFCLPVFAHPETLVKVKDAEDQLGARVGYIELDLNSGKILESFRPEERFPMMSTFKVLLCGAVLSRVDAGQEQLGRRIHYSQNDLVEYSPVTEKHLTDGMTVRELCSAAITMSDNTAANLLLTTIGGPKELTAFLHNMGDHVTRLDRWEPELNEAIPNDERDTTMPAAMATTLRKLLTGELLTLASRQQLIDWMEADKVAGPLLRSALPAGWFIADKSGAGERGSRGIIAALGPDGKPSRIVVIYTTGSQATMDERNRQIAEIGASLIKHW
Sequence of Beta-lactamase (P05364 whole entry): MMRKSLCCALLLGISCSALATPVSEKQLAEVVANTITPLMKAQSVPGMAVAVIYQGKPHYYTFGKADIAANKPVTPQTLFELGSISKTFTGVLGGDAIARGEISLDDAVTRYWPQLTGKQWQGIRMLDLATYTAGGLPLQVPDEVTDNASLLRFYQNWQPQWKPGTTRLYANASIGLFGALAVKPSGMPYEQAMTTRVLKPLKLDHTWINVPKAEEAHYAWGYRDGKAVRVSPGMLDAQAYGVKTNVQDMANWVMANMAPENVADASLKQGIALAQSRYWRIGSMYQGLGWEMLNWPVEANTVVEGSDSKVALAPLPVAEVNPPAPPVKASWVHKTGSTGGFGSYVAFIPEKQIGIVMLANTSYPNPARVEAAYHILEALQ
Sequence of Beta-lactamase (Enterobacter cloacae) (P05364 21-381 limits assumed): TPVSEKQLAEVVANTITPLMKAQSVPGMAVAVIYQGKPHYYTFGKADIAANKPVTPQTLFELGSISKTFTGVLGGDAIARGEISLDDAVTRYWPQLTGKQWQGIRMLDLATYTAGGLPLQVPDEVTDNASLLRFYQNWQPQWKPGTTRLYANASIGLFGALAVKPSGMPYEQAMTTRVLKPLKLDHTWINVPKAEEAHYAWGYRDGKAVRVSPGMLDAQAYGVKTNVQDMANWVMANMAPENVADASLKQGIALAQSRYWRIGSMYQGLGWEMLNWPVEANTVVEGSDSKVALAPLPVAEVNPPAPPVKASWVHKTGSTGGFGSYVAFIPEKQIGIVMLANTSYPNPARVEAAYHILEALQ

With CC(C)(C)[Si](C)(C)O[C@H]1CC12C(=O)N1C(C(=O)O)C(C)(C)S(=O)(=O)[C@@H]12 (single isomer, unassigned) the IC50 [1] was 4100 nM.

In the case of CC(C)(C)[Si](C)(C)O[C@H]1C[C@]12C(=O)N1[C@@H](C(=O)O)C(C)(C)S(=O)(=O)[C@@H]12, the IC50 [1] is reported as 20 nM.

Work on CC(C)(C)[Si](C)(C)O[C@@H]1CC12C(=O)N1[C@@H](C(=O)O)C(C)(C)S(=O)(=O)[C@@H]12 (single isomer, unassigned) yielded an IC50 [1] of 400 nM.

For CC(C)(C)[Si](C)(C)O[C@H]1C[C@]12C(=O)N1[C@@H](C(=O)O)C(C)(C)S(=O)(=O)[C@@H]12.CCN1CCN(C(=O)N[C@@H](C(=O)N[C@@H]2C(=O)N3[C@@H]2SC(C)(C)[C@@H]3C(=O)O)c2ccccc2)C(=O)C1=O [listing 1 of 2 here], the MIC [2] was less than 0.06 µg/mL.

CC1(C)[C@H](C(=O)O)N2C(=O)[C@]3(C[C@@H]3OC3CCCCC3)[C@H]2S1(=O)=O.CCN1CCN(C(=O)N[C@@H](C(=O)N[C@@H]2C(=O)N3[C@@H]2SC(C)(C)[C@@H]3C(=O)O)c2ccccc2)C(=O)C1=O [listing 1 of 2 here] showed an MIC [3] of 8 µg/mL.

CCN1CCN(C(=O)N[C@@H](C(=O)N[C@@H]2C(=O)N3[C@@H]2SC(C)(C)[C@@H]3C(=O)O)c2ccccc2)C(=O)C1=O [PIPERACILLIN] gave an MIC [2] greater than 64 µg/mL.

CC(C)(C)[Si](C)(C)O[C@H]1C[C@]12C(=O)N1[C@@H](C(=O)O)C(C)(C)S(=O)(=O)[C@@H]12.CCN1CCN(C(=O)N[C@@H](C(=O)N[C@@H]2C(=O)N3[C@@H]2SC(C)(C)[C@@H]3C(=O)O)c2ccccc2)C(=O)C1=O [listing 2 of 2 here] was tested, and the MIC [4] was 8 µg/mL, the MIC [3] was 4 µg/mL and the MIC [5] was 8 µg/mL.

Work on CC1(C)[C@H](C(=O)O)N2C(=O)[C@]3(C[C@@H]3OC3CCCCC3)[C@H]2S1(=O)=O.CCN1CCN(C(=O)N[C@@H](C(=O)N[C@@H]2C(=O)N3[C@@H]2SC(C)(C)[C@@H]3C(=O)O)c2ccccc2)C(=O)C1=O [listing 2 of 2 here] yielded an MIC [2] of 64 µg/mL.

Work on CCN1CCN(C(=O)N[C@@H](C(=O)N[C@@H]2C(=O)N3[C@@H]2SC(C)(C)[C@@H]3C(=O)O)c2ccccc2)C(=O)C1=O.C[C@]1(Cn2ccnn2)[C@H](C(=O)O)N2C(=O)C[C@H]2S1(=O)=O [listing 1 of 2 here] yielded an MIC [3] of 4 µg/mL.

With CC1(C)[C@H](C(=O)O)N2C(=O)[C@]3(C[C@@H]3OC3CCCCC3)[C@H]2S1(=O)=O the IC50 [1] was 30 nM.

Work on CC1(C)[C@H](C(=O)O)N2C(=O)[C@@]3(C[C@@H]3OC3CCCCC3)[C@H]2S1(=O)=O yielded an IC50 [1] of 3200 nM.

For CCN1CCN(C(=O)N[C@@H](C(=O)N[C@@H]2C(=O)N3[C@@H]2SC(C)(C)[C@@H]3C(=O)O)c2ccccc2)C(=O)C1=O.C[C@]1(Cn2ccnn2)[C@H](C(=O)O)N2C(=O)C[C@H]2S1(=O)=O [listing 2 of 2 here], the MIC [6] was 32 µg/mL.

For CC1(C)[C@H](C(=O)O)N2C(=O)[C@@]3(C[C@H]3OC3CCCCC3)[C@H]2S1(=O)=O, the IC50 [1] was greater than 3200 nM.
